Legend:
Mono-Mac-6 = experiment: cell viability (% survival relative to DMSO control, bortezomib = 0%); higher = less cytotoxic; conditions: 72 h
In short: (§1)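 Fifteen myeloid leukaemia cell lines were exposed to compounds at 1, 10, 100, 1000 or 10000 nM in 384-well plates for 72 h at 37 °C and 5% CO2. Viability was read by CellTiter-Glo luminescence and normalised, with vehicle as 100% and a 10 µM positive control as 0%. Values are percent survival averaged over duplicates.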

MV4-11 = experiment: as above; conditions: 72 h
In short: as §1

SMILES | cell viability (Mono-Mac-6; 1 nM) [%] | cell viability (Mono-Mac-6; 10 nM) [%] | cell viability (Mono-Mac-6; 100 nM) [%] | cell viability (Mono-Mac-6; 1000 nM) [%] | cell viability (Mono-Mac-6; 10000 nM) [%] | cell viability (MV4-11; 1 nM) [%] | cell viability (MV4-11; 10 nM) [%] | cell viability (MV4-11; 100 nM) [%] | cell viability (MV4-11; 1000 nM) [%] | cell viability (MV4-11; 10000 nM) [%]
CC12CCC(O)CC1CCC1C2CCC2(C)C(C3=CC(=O)OC3)CCC12O (stereo not given) [Digitoxigenin] | 111 | 89.6 | 83 | 1.4 | -1.27 | 96.8 | 120 | 100 | 1.01 | -1.41
C1CCc2nnc(C34CC5CC(CC(C5)C3)C4)n2CC1 [MERCK-544] | 95.9 | 100 | 93.3 | 97.7 | 96 | 97.8 | 100 | 102 | 87.3 | 106
Cc1c(-c2ccccc2)oc2c(C(=O)OCCN3CCCCC3)cccc2c1=O.Cl [Flavoxate] | 92.6 | 105 | 101 | 96 | 94.6 | 87.5 | 83.6 | 97.9 | 94.8 | 98.6
CCCc1nn(C)c2c(O)nc(-c3cc(S(=O)(=O)N4CCN(C)CC4)ccc3OCC)nc12 [Sildenafil] | 87.9 | 110 | 100 | 110 | 105 | 99.6 | 95.1 | 101 | 98.8 | 119
C[C@]12CC[C@H](O)CC1=CC[C@@H]1[C@@H]2CC[C@]2(C)C(c3cccnc3)=CC[C@@H]12 [Abiraterone] | 97.7 | 101 | 85.2 | 96.1 | 108 | 96.4 | 96.5 | 107 | 114 | 99
C#Cc1cnc(O)nc1O [Eniluracil] | 104 | 125 | 105 | 106 | 97.4 | 102 | 112 | 104 | 108 | 106
Cc1coc2c1C(=O)C(=O)c1c-2ccc2c(C)cccc12 [Tanshinone I] | 126 | 107 | 106 | 102 | 84.7 | 101 | 89.7 | 108 | 103 | 97.2
c1ccc2c(c1)OCC(=C1NCCN1)O2 [Idazoxan] | 102 | 106 | 91.1 | 89.1 | 102 | 82.3 | 106 | 80.6 | 82.9 | 89.1
Clc1ccc2c(c1Cl)CNCC2 | 95.3 | 103 | 104 | 106 | 77.4 | 99.7 | 114 | 96.3 | 114 | 91.6
CCOC(=O)[C@H]1O[C@@H]1C(=O)N[C@@H](CC(C)C)C(=O)NCCC(C)C [Aloxistatin] | 97.3 | 108 | 104 | 89 | 81.7 | 99.1 | 104 | 110 | 97.8 | 87.8
Cc1noc2c1-c1ccccc1C(c1ccc(Cl)cc1)=N[C@H]2CC(N)=O [CPI-0610] | 99.7 | 89.3 | 65.7 | 17 | 15.9 | 86.1 | 84 | 57.2 | 3.4 | 1.28
Sc1ncnc2nc[nH]c12 [6-mercaptopurine] | 97.2 | 97.7 | 85.9 | 53.7 | 15.5 | 87 | 85.5 | 80.1 | 27.3 | 24.7
O=c1c2ccccc2[se]n1-c1ccccc1 [Ebselen] | 99.1 | 93.8 | 103 | 98.1 | 84.6 | 93 | 92.5 | 93.8 | 99.7 | 68
CN(C/C=C/C#CC(C)(C)C)Cc1cccc2ccccc12 [Terbinafine] | 103 | 96.2 | 102 | 98.7 | 91.2 | 93.7 | 92.8 | 102 | 111 | 109
OCCN1CCN(CCCN2c3ccccc3Sc3ccc(Cl)cc32)CC1 [Perphenazine] | 97.2 | 106 | 102 | 100 | 54.6 | 102 | 96 | 93.4 | 92.8 | 9.41
O=C(c1ccc(OCCN2CCCCC2)cc1)c1c(-c2ccc(O)cc2)sc2cc(O)ccc12 [Raloxifene] | 109 | 95.2 | 107 | 104 | 77 | 93.9 | 102 | 85.4 | 93.3 | 58.9
Cc1ccc(S(=O)(=O)NC2c3ccccc3Oc3ccccc32)cc1 [AH-7614] | 101 | 95.7 | 111 | 94.9 | 101 | 94 | 94.1 | 100 | 94.7 | 93.3
C[C@]12O[C@H](C[C@]1(O)CO)n1c3ccccc3c3c4c(c5c6ccccc6n2c5c31)CNC4=O [Lestaurtinib] | 83.4 | 54.1 | 4.06 | 0.62 | 0.201 | 73.6 | 7.97 | -0.544 | 0.552 | 0.212
O=C(O)C(S)=Cc1c[nH]c2ccc(F)cc12 | 104 | 94.7 | 93.5 | 74.2 | 74.1 | 96.2 | 97.6 | 81.7 | 103 | 83.6
O=C(O)CC[C@H](NC(=O)c1ccc([N+](=O)[O-])cc1)C(=O)O [(S)-2-(4-Nitrobenzamido)pentanedioic acid] | 96 | 103 | 94.9 | 97.6 | 98 | 89.6 | 103 | 80 | 96.6 | 85.9
CC(/C=C1\SC(=S)N(CC(=O)O)C1=O)=C\c1ccccc1 [Epalrestat] | 106 | 103 | 103 | 93.9 | 116 | 95.3 | 85.8 | 103 | 102 | 110
O=C(O)CCc1ccc(NCc2cccc(Oc3ccccc3)c2)cc1 [GW9508] | 101 | 104 | 108 | 110 | 104 | 98.2 | 98.7 | 103 | 103 | 106

SMILES | cell viability (Mono-Mac-6; 1 nM) [%] | cell viability (Mono-Mac-6; 10 nM) [%] | cell viability (Mono-Mac-6; 100 nM) [%] | cell viability (Mono-Mac-6; 1000 nM) [%] | cell viability (Mono-Mac-6; 10000 nM) [%] | cell viability (MV4-11; 1 nM) [%] | cell viability (MV4-11; 10 nM) [%] | cell viability (MV4-11; 100 nM) [%] | cell viability (MV4-11; 1000 nM) [%] | cell viability (MV4-11; 10000 nM) [%]
O=P(O)(O)C(O)(Cn1ccnc1)P(=O)(O)O [Zoledronic acid] | 96.7 | 104 | 91.1 | 91 | 96.7 | 94.7 | 104 | 88.7 | 101 | 81.5
COc1cc2c(NC3CCN(C)CC3)nc(N3CCCN(C)CC3)nc2cc1OCCCN(C)C [UNC0224] | 100 | 116 | 101 | 98.5 | 81.4 | 97.8 | 98.7 | 95.2 | 91.4 | 64
C=CCc1ccc2c(c1O)C(=O)c1ccccc1C2=O [R162] | 101 | 93.4 | 103 | 123 | 115 | 100 | 97.4 | 102 | 130 | 121
C1CCC(C(CC2CCCCN2)C2CCCCC2)CC1.O=C(O)/C=C\C(=O)O (stereo not given) [Perhexiline] | 91.8 | 87.4 | 85.9 | 98.6 | 1.23 | 100 | 101 | 95.3 | 91.8 | 0.781
Nc1ccn([C@@H]2O[C@H](CO)[C@@H](O)[C@@H]2O)c(=O)n1 [Cytarabine] | 95.1 | 86.4 | 79.8 | 19.1 | 3.49 | 103 | 89.2 | 84.2 | 34.4 | 0.163
NC(=O)c1ncn([C@@H]2O[C@H](CO)[C@@H](O)[C@H]2O)n1 [Ribavirin] | 92.1 | 103 | 96.4 | 101 | 112 | 110 | 92.1 | 89.8 | 137 | 81.8
Oc1cc(Cl)ccc1Oc1ccc(Cl)cc1Cl [Triclosan] | 94.5 | 98.3 | 101 | 116 | 97.2 | 110 | 82.5 | 104 | 93.7 | 82.1
O=C1Oc2ccccc2C(=O)C1CC1C(=O)Oc2ccccc2C1=O (stereo not given) [Dicumarol] | 103 | 111 | 86.5 | 95.7 | 106 | 89.7 | 111 | 87 | 97.5 | 93.6
CC(C)Cc1sc(N)nc1-c1ccc(P(=O)(O)O)o1 | 97.6 | 85.3 | 95.2 | 101 | 86.6 | 102 | 101 | 113 | 101 | 87.3
CN(C)c1nc(O)c2[nH]cnc2n1 [2-Dimethylamino-6-hydroxypurine] | 97.2 | 100 | 86.9 | 99.4 | 113 | 101 | 98.8 | 97.2 | 102 | 89.8
COc1c(C)c2c(c(O)c1C/C=C(\C)CCC(=O)O)C(=O)OC2 [Mycophenolic acid] | 104 | 99.7 | 108 | 80 | 16.4 | 103 | 94.5 | 90.7 | 26.5 | -0.47
O=C(O)C(Cl)Cl [Dichloroacetate] | 92.4 | 92.4 | 113 | 98.8 | 102 | 99.6 | 91.5 | 83.5 | 98.5 | 102
O=C(O)c1cc2sccc2[nH]1 [4H-thieno[3,2-b]pyrrole-5-carboxylic acid] | 104 | 92.6 | 99.5 | 92.6 | 101 | 107 | 93 | 93.2 | 92.9 | 96.8
CCOc1ccc(Cc2cc([C@@H]3O[C@H](CO)[C@@H](O)[C@H](O)[C@H]3O)ccc2Cl)cc1 [Dapagliflozin] | 91.5 | 95.1 | 87.5 | 91.7 | 88.8 | 93.7 | 106 | 94.3 | 94.6 | 86.9
CCN(CC)CCN(Cc1ccc(-c2ccc(C(F)(F)F)cc2)cc1)C(=O)Cn1c(SCc2ccc(F)cc2)nc(=O)c2c1CCC2 [Darapladib] | 97 | 90.9 | 101 | 93.3 | -0.318 | 88.5 | 104 | 87.8 | 102 | -0.522
Nc1ncnc2c1ncn2[C@@H]1O[C@H](CSCC[C@H](N)C(=O)O)[C@@H](O)[C@H]1O [S-Adenosyl Homocysteine] | 96.7 | 101 | 96.9 | 104 | 93.7 | 110 | 113 | 91.8 | 97 | 86.1
[N-]=[N+]=CC(=O)CC[C@H](N)C(=O)O [6-Diazo-5-oxo-L-norleucine] | 88 | 90.2 | 92.4 | 97.8 | 104 | 78.2 | 106 | 108 | 97.1 | 105
CCOC(=O)N1c2ccc(C(F)(F)F)cc2[C@@H](N(Cc2cc(C(F)(F)F)cc(C(F)(F)F)c2)C(=O)OC)C[C@H]1CC [Torcetrapib] | 109 | 109 | 107 | 90.8 | 78.2 | 103 | 105 | 147 | 84.6 | 53.3
CC(C)C[C@H](NC(=O)[C@@H](O)[C@H](N)Cc1ccccc1)C(=O)O [Ubenimex] | 99.5 | 116 | 96.4 | 83.1 | 90.1 | 100 | 103 | 109 | 99.8 | 143
CC(Cc1ccc(O)c(O)c1)C(C)Cc1ccc(O)c(O)c1 (stereo not given) [Masoprocol] | 86.6 | 109 | 102 | 84.2 | 22.8 | 108 | 91.6 | 92.5 | 97.2 | 9.84
O=C1Nc2ccccc2/C1=C\NCCc1ccc(O)c(O)c1 [AC1NZZMF] | 105 | 102 | 102 | 96.9 | 74.4 | 113 | 89.4 | 93.8 | 84.9 | 75.7
Clc1ccc(COC(Cn2ccnc2)c2ccc(Cl)cc2Cl)cc1 (stereo not given) [Econazole] | 102 | 92.1 | 86.7 | 78.4 | 58.8 | 103 | 83.4 | 89.3 | 57.4 | 25.2
